Assay results taken from US20250215029A1 (Recludix Pharma, Inc., priority 2022, published 2025).
Read-outs that look alike come from different tables or passages of the source.

Tests used:
[1] = target: T1, Recombinant STAT3 protein (STAT3 (G127-I722)) (Homo sapiens, UniProt P40763); test: STAT3 Fluorescence Polarization (FP) Assay; assay type: binding; conditions: probe 5-FAM-GpYLPQTV-NH2 2 nM, 45-minute incubation
T1 construct: Recombinant STAT3 protein (STAT3 (G127-I722))
Procedure: STAT3 Fluorescence Polarization (FP) Assay
An FP assay was developed to determine IC50 values for test substances. Recombinant STAT3 protein (STAT3 (G127-I722)) at 25 nM was combined with a fluorescently labeled, phosphotyrosine peptide probe (5-FAM-GpYLPQTV-NH2) at 2 nM in FP buffer (10 mM HEPES pH 7.4, 50 mM NaCl, 1 mM EDTA, 0.05% Tween 20.2 mM DTT). 50 μL of STAT3-probe mixture was added to serial diluted compounds in black, 96-well plates (Greiner BioOne 655076) to a final concentration of 1% DMSO. Reaction components were mixed, and FP was measured after 45-minute incubation at room temperature using a Tecan Spark multimode plate reader. FP signal (mP) was plotted against the log concentration of the test substances and IC50 values were calculated by nonlinear regression analysis using GraphPad Prism software. For STAT3 FP assay, A=≤100 nM; B=>100-1000 nM; C=>1-10 μM; and D=>10 μM.

[2] = target: T2, Recombinant STAT6 protein (STAT6 (W123-T658)) (Homo sapiens, UniProt P42226); test: STAT6 Fluorescence Polarization (FP) Assay; assay type: binding; conditions: probe 5-FAM-Ap[…]-NH2 2 nM, 45-minute incubation
T2 construct: Recombinant STAT6 protein (STAT6 (W123-T658))
T2 sequence (P42226 123-658): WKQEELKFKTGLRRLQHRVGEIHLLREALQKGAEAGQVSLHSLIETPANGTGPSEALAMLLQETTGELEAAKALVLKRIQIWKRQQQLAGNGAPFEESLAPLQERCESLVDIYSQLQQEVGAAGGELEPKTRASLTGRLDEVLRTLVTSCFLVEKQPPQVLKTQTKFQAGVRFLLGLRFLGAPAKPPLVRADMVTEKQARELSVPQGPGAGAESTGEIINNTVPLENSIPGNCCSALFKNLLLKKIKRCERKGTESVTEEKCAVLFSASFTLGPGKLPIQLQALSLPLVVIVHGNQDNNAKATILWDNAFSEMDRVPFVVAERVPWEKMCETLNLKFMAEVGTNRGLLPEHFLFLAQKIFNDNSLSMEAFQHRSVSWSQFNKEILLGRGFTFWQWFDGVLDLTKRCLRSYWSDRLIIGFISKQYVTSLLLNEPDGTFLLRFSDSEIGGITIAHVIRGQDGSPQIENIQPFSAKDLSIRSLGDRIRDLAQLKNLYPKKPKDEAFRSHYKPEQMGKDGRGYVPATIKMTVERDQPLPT
Procedure: STAT6 Fluorescence Polarization (FP) Assay
An FP assay was developed to determine IC50 values for test substances. Recombinant STAT6 protein (STAT6 (W123-T658)) at 250 nM was combined with a fluorescently labeled, phosphotyrosine peptide probe (5-FAM-Ap[…]-NH2) at 2 nM in FP buffer (10 mM HEPES pH 7.4, 50 mM NaCl, 1 mM EDTA, 0.05% Tween 20, 2 mM DTT). 50 μL of STAT6-probe mixture was added to serial diluted compounds in black, 96-well plates (Greiner BioOne 655076) to a final concentration of 1% DMSO. Reaction components were mixed, and FP was measured after 45-minute incubation at room temperature using a Tecan Spark multimode plate reader. FP signal (mP) was plotted against the log concentration of the test substances and IC50 values were calculated by nonlinear regression analysis using GraphPad Prism software. For STAT6 FP assay, A=≤300 nM; B=>300-3000 nM; C=>3-30 μM; and D=>30 μM.

[3] = STAT3 (G127-I722) 25 nM, read-out: STAT3 (FP assay IC50 class)
[4] = STAT6 (W123-T658) 250 nM, read-out: STAT6 (FP assay IC50 class)
[5] = STAT3 25 nM, read-out: STAT3 (FP assay IC50)
[6] = STAT6 250 nM, read-out: STAT6 (FP assay IC50)

T1 sequence (P40763 127-722): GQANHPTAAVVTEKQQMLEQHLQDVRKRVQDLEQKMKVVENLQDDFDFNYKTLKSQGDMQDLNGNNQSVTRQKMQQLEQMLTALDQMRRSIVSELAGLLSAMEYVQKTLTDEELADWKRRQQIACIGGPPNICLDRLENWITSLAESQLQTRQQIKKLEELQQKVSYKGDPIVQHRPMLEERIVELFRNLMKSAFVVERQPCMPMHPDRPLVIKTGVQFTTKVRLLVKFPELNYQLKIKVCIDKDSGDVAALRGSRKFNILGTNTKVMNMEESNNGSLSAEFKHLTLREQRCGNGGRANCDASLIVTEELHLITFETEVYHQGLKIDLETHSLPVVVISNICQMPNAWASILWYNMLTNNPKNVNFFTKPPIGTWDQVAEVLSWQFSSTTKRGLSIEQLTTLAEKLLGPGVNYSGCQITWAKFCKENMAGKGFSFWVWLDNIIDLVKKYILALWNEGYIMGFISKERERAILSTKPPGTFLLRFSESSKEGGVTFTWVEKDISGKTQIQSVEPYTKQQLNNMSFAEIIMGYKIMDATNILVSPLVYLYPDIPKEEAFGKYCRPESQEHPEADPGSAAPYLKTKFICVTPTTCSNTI

Row | SMILES | IC50 [1, 3] [nM] | IC50 [2, 4] [nM] | IC50 [1, 5] [nM] | IC50 [2, 6] [nM]
1 | N#C[C@H]1CN(C(=O)[C@@H]2CC[C@@H]3CCCC[C@H](NC(=O)c4cc5cc(C(F)(F)P(=O)(O)O)ccc5s4)C(=O)N32)C[C@H]1c1ccccc1 (relative stereo) [Compound 92, ((2-(((3S,6S,10aS)-3-(rel-(trans)-3-cyano-4-phenylpyrrolidine-1-carbonyl)-5-oxodecahydropyrrolo [1,2-a]azocin-6-yl)carbamoyl)benzo[b]thiophen-5-yl)difluoromethyl) phosphonic acid] | – | – | 100 to 1000 | 300 to 3000
2 | N#C[C@@H]1CN(C(=O)[C@@H]2CC[C@@H]3CCCC[C@H](NC(=O)c4cc5cc(C(F)(F)P(=O)(O)O)ccc5s4)C(=O)N32)C[C@H]1c1ccccc1 (single isomer, unassigned) [Compound 22, ((2-(((3S,6S,10aS)-3-((3S,4R or 3R,4S))-3-cyano-4-phenylpyrrolidine-1-carbonyl)-5-oxodecahydropyrrolo [1,2-a]azocin-6-yl)carbamoyl)benzo[b]thiophen-5-yl) difluoromethyl) phosphonic acid] | – | – | 1000 to 10000 | ≤ 300
3 | O=C(N[C@H]1CCC[C@H]2CC[C@@H](C(=O)N3CC(c4nc5ccccc5[nH]4)C3)N2C1=O)c1cc2cc(C(F)(F)P(=O)(O)O)ccc2s1 [Compound 43, ((2-(((3S,6S,9aS)-3-(3-(1H-benzo[d]imidazol-2-yl)azetidine-1-carbonyl)-5-oxooctahydro-1H-pyrrolo[1,2-a]azepin-6-yl)carbamoyl)benzo[b]thiophen-5-yl)difluoromethyl) phosphonic acid] | – | – | < 100 | 300 to 3000
4 | O=C(N[C@H]1CCCC[C@H]2CC[C@@H](C(=O)N3CC(Cc4ccccc4)C3)N2C1=O)c1cc2cc(C(F)(F)P(=O)(O)O)ccc2s1 [Compound 36, ((2-(((3S,6S,10aS)-3-(3-benzylazetidine-1-carbonyl)-5-oxodecahydro-pyrrolo[1,2-a]azocin-6-yl)carbamoyl)benzo[b]thiophen-5-yl)difluoromethyl) phosphonic acid] | – | – | < 100 | 300 to 3000
5 | O=C(N[C@H]1CCC[C@H]2CC[C@@H](C(=O)N3CC(N4CCOCC4)C3)N2C1=O)c1cc2cc(C(F)(F)P(=O)(O)O)ccc2s1 [Compound 34, (difluoro(2-(((3S,6S,9aS)-3-(3-morpholino-azetidine-1-carbonyl)-5-oxooctahydro-1H-pyrrolo[1,2-a]azepin-6-yl)carbamoyl)benzo[b]thiophen-5-yl)methyl) phosphonic acid] | – | – | 100 to 1000 | 3000 to 30000
6 | O=C(N[C@H]1CCC[C@H]2CC[C@@H](C(=O)N3CC(c4cccnc4)C3)N2C1=O)c1cc2cc(C(F)(F)P(=O)(O)O)ccc2s1 [Compound 33, (difluoro(2-(((3S,6S,9S)-5-oxo-3-(3-(pyridin-3-yl)azetidine-1-carbonyl)octahydro-1H-pyrrolo[1,2-a]azepin-6-yl)carbamoyl)benzo[b]thiophen-5-yl)methyl) phosphonic acid] | – | – | < 100 | 300 to 3000

Next, values leading:

Row | IC50 [1, 3] [nM] | IC50 [2, 4] [nM] | IC50 [1, 5] [nM] | IC50 [2, 6] [nM] | SMILES
7 | 1000 to 10000 | 300 to 3000 | – | – | Cn1ccc(N2C(=O)N(C(=O)[C@@H]3CC[C@@H]4CCCC[C@H](NC(=O)c5cc6cc(C(F)P(=O)(O)O)ccc6s5)C(=O)N43)C3(CC3)C2=O)cc1=O (stereo partly drawn) [Compound 569, (fluoro(2-(((3S,6S,10aS)-3-(6-(1-methyl-2-oxo-1,2-dihydropyridin-4-y1)-5,7-dioxo-4,6-diazaspiro[2.4]heptane-4-carbonyl)-5-oxodecahydropyrrolo[1,2-a]azocin-6-yl)carbamoyl)benzo[b]thiophen-5-yl)methyl)phosphonic acid]
8 | 1000 to 10000 | 3000 to 30000 | – | – | CC(C)n1cc(N(C)C(=O)[C@@H]2CC[C@@H]3CCCC[C@H](NC(=O)c4cc5cc(C(F)(F)P(=O)(O)O)ccc5s4)C(=O)N32)cn1 [Compound 793, (difluoro(2-(((3S,6S,10aS)-3-((1-isopropyl-1H-pyrazol-4-yl)(methyl)carbamoyl)-5-oxodecahydropyrrolo[1,2-a]azocin-6-yl)carbamoyl)benzo [b]thiophen-5-yl)methyl) phosphonic acid]
9 | < 100 | 300 to 3000 | – | – | C/C1=C/C[C@H](NC(=O)c2cc3cc(C(F)(F)P(=O)(O)O)ccc3s2)C(=O)N2[C@H](CC[C@H]2C(=O)N2CC(c3cnccc3C)C2)C1 [Compound 641, (difluoro(2-(((3S,6S,10aR,Z)-9-methyl-3-(3-(4-methylpyridin-3-yl)azetidine-1-carbonyl)-5-oxo-1,2,3,5,6,7,10,10a-octahydropyrrolo[1,2-a]azocin-6-yl)carbamoyl)benzo [b]thiophen-5-yl)methyl) phosphonic acid]
10 | 1000 to 10000 | 3000 to 30000 | – | – | CCc1ccncc1C1CN(C(=O)[C@@H]2CC[C@@H]3CCC[C@H](NC(=O)c4cn5cc(CP(=O)(O)O)ccc5n4)C(=O)N32)C1 [Compound 575, ((2-(((3S,6S,9aS)-3-(3-(4-ethylpyridin-3-yl)azetidine-1-carbonyl)-5-oxooctahydro-1H-pyrrolo[1,2-a]azepin-6-yl)carbamoyl)imidazo[1,2-a]pyridin-6-yl)methyl)phosphonic acid]
11 | 100 to 1000 | 3000 to 30000 | – | – | O=C(N[C@H]1CCC[C@H]2CC[C@@H](C(=O)N3CC(c4cscc4F)C3)N2C1=O)c1cc2cc(C(F)P(=O)(O)O)ccc2s1 (stereo partly drawn) [Compound 757, (fluoro(2-(((3S,6S,9aS)-3-(3-(4-fluorothiophen-3-yl)azetidine-1-carbonyl)-5-oxooctahydro-1H-pyrrolo[1,2-a]azepin-6-yl)carbamoyl)benzo [b]thiophen-5-yl)methyl) phosphonic acid]
12 | 1000 to 10000 | 3000 to 30000 | – | – | Cc1ncncc1C1CN(C(=O)[C@@H]2CC[C@@H]3CCC[C@H](NC(=O)c4cc5cc(CP(=O)(O)O)ccc5s4)C(=O)N32)C1 [Compound 661, ((2-(((3S,6S,9aS)-3-(3-(4-methylpyrimidin-5-yl)azetidine-1-carbonyl)-5-oxooctahydro-1H-pyrrolo[1,2-a]azepin-6-yl)carbamoyl)benzo [b]thiophen-5-yl)methyl) phosphonic acid]
13 | 100 to 1000 | 3000 to 30000 | – | – | O=C(N[C@H]1CCCC[C@H]2CC[C@@H](C(=O)N3CC(c4cccnc4)C3)N2C1=O)c1cc2cc(CP(=O)(O)O)ccc2s1 [Compound 663, ((2-(((3S,6S,10aS)-5-oxo-3-(3-(pyridin-3-yl)azetidine-1-carbonyl)decahydropyrrolo[1,2-a]azocin-6-yl)carbamoyl)benzo [b]thiophen-5-yl)methyl) phosphonic acid]
14 | 100 to 1000 | 300 to 3000 | – | – | O=C(N[C@H]1CCC[C@H]2CC[C@@H](C(=O)N3CC(c4cnccc4C(F)F)C3)N2C1=O)c1cc2cc(C(F)(F)P(=O)(O)O)ccc2s1 [Compound 819, ((2-(((3S,6S,9aS)-3-(3-(4-(difluoromethyl)pyridin-3-yl)azetidine-1-carbonyl)-5-oxooctahydro-1H-pyrrolo[1,2-a]azepin-6-yl)carbamoyl)benzo [b]thiophen-5-yl)difluoromethyl) phosphonic acid]
15 | < 100 | 3000 to 30000 | – | – | COC[C@@H]1CCN1c1ncncc1C1CN(C(=O)[C@@H]2CC[C@@H]3CCC[C@H](NC(=O)c4cc5cc([C@H](F)P(=O)(O)O)ccc5s4)C(=O)N32)C1 (single isomer, unassigned) [Compound 862]
